What all share (experiment): Cancer cell growth inhibition, Sulforhodamine B assay
Common to all, as to type: cell-based

Test [1] has as its system PA-1 ovarian cancer cells. Conditions: 120 h; PA-1, 5 days culture, SRB; read-out: Cancer Cell Line GI50 Range PA-1. The method, then:
(§1) Breast cancer cells (MDA-MB-231), colon cancer cells (HCT116) and ovarian cancer cells (PA-1) were seeded (1000 to 4000 in 80 μl per well depending on the cell growth rate) into 96 well plates 24 hours before compound overlay. Compounds were prepared as 10 mM stock solutions in 100% DMSO which were diluted with DMEM (Dulbecco's Modified Eagle's Medium) cell growth Medium (Invitrogen, Burlington, ON, Canada) containing 10% FBS (Fetal Bovine Serum) to concentrations ranging from 50 nM to 250 μM. Aliquots (20 μl) from each concentration were overlaid to 80 μl of the pre-seeded cells in the 96 well plates to make final concentrations of 10 nM to 50 μM. The cells were cultured for 5 days before the Sulforhodamine B assay (SRB) was performed to determine the compound's cell growth inhibition activity.
(§2) Sulforhodamine B (purchased from Sigma, Oakville, ON, Canada) is a water-soluble dye that binds to the basic amino acids of the cellular proteins. Thus, colorimetric measurement of the bound dye provides an estimate of the total protein mass that is related to the cell number. the cells are fixed in situ by gently aspirating off the culture media and adding 50 μl ice cold 10% Trichloroacetic Acid (TCA) per well and incubate at 4° C. for 30-60 min. The plates are washed with H2O five times and allowed to air dry for 5 min. Addition of 50 μl 0.4% (w/v) SRB solution in 1% (v/v) acetic acid to each well and incubatation for 30 min at RT completes the staining reaction. Following staining, plates are washed four times with 1% acetic acid to remove unbound dye and then allowed to air dry for 5 min. The stain is solubilized with 100 μl of 10 mM Tris pH 10.5 per well. Absorbance is read at 570 nm.
(§3) The percentage (%) of relative growth inhibition was calculated by comparing to DMSO treated only cells (100%). GI50's were determined for compounds with cytotoxic activity. The GI50 was calculated using GraphPad PRISM software (GraphPad Software, Inc., San Diego, Calif., USA). GI50 (growth inhibition) is the compound concentration that causes 50% inhibition of cell growth.
(§4) In Table 1 below, GI50 value ranges for several compound examples against breast cancer cell lines (MDA-MB-231), colon cancer cell lines (HCT116) and ovarian cancer cell lines (PA-1) are given. […] The GI50 ranges are indicated as “A,” “B,” and “C,” for values less than or equal to 0.1 μM; those greater than 0.1 μM and less than or equal to 0.5 μM; and those greater than 0.5 μM, respectively.

In test [2] the test system is MDA-MB-231 breast cancer cells. Conditions: Homo sapiens, 120 h; MDA-MB-231, 5 days culture, SRB; read-out: Cancer Cell Line GI50 Range MDA-MB-231. The method, then: as §1, §2, §3, §4
Test [3] concerns HCT116 colon cancer cells. Conditions: Homo sapiens, HCT-116, 120 h; HCT116, 5 days culture, SRB; read-out: Cancer Cell Line GI50 Range HCT116. On the procedure: as §1, §2, §3, §4

A value given as a limit tells only on which side of the number the result lay.

By GI50 is commonly meant the concentration that inhibits growth by half. As to `O=C(N[C@H](c1ccccc1)C1CC1)c1ccc2[nH]nc(-c3ccc(N4CC5(CCOCC5)C4)cc3)c2c1` [Example A17, (S)-3-(4-(7-Oxa-2-azaspiro[3.5]nonan-2-yl)phenyl)-N-(cyclopropyl(phenyl)methyl)-1H-indazole-5-carboxamide], the 50% growth inhibitory concentration (GI50) in test [1], in test [2] and in test [3] was 100 to 500 nM in each case.

As to `CN1CC2(C1)CN(c1ccc(-c3n[nH]c4ccc(C(=O)N[C@H](c5ccccc5)C5CC5)cc34)cc1)C2` [Example A29, (S)-N-(Cyclopropyl(phenyl)methyl)-3-(4-(6-methyl-2,6-diazaspiro[3.3]heptan-2-yl)phenyl)-1H-indazole-5-carboxamide], the concentration for 50% growth inhibition (GI50) in test [1], in test [2] and in test [3] was no more than 100 nM in each case.

As for `O=C(N[C@H](c1ccccn1)C1CCCC1)c1ccc2[nH]nc(-c3ccc(N4CC5(C4)CN(C4COC4)C5)cc3)c2c1` [Example A31, (S)-N-(Cyclopentyl(pyridin-2-yl)methyl)-3-(4-(6-(oxetan-3-yl)-2,6-diazaspiro[3.3]heptan-2-yl)phenyl)-1H-indazole-5-carboxamide], the GI50 in test [1], in test [2] and in test [3] was no more than 100 nM each time.

`O=C(N[C@@H](c1ccccn1)C1CC1)c1ccc2[nH]nc(-c3ccc(N4CC5(CCO5)C4)cc3)c2c1` [Example A22, (R)-3-(4-(1-Oxa-6-azaspiro[3.3]heptan-6-yl)phenyl)-N-(cyclopropyl(pyridin-2-yl)methyl)-1H-indazole-5-carboxamide]: the GI50 in test [1], in test [2] and in test [3] was no more than 100 nM each time.

In the case of `CC(C)[C@@H](NC(=O)c1ccc2[nH]nc(-c3ccc(N4CC5(COC5)C4)cc3)c2c1)c1ccccc1Cl` [Example A13, 3-(4-(2-Oxa-6-azaspiro[3.3]heptan-6-yl)phenyl)-N-((R)-1-(2-chlorophenyl)-2-methylpropyl)-1H-indazole-5-carboxamide], the figures for the GI50 in test [1], in test [2] and in test [3] were no more than 100 nM, 100 to 500 nM and no more than 100 nM, respectively.

As for `O=C(N[C@@H](c1ncccn1)C1CCCC1)c1ccc2[nH]nc(-c3ccc(N4CCC45COC5)cc3)c2c1` [Example A37, (R)-3-(4-(6-oxa-1-azaspiro[3.3]heptan-1-yl)phenyl)-N-(cyclopentyl(pyrimidin-2-yl)methyl)-1H-indazole-5-carboxamide], the GI50 in test [1], in test [2] and in test [3] was no more than 100 nM throughout.

Consider `O=C(NC(c1ccccn1)C1CC1)c1ccc2[nH]nc(-c3ccc(N4CCC5(COC5)C4)cc3)c2c1` (stereo not drawn) [Example A16, 3-(4-(2-Oxa-6-azaspiro[3.4]octan-6-yl)phenyl)-N-(cyclopropyl(pyridin-2-yl)methyl)-1H-indazole-5-carboxamide], for which the 50% growth inhibitory concentration (GI50) in test [1], in test [2] and in test [3] was 100 to 500 nM each time.

Consider `O=C(N[C@H](c1ccccn1)C1CCCC1)c1ccc2[nH]nc(-c3ccc(N4CC5(CC(O)C5)C4)cc3)c2c1` [Example A33, (S)-N-(Cyclopentyl(pyridin-2-yl)methyl)-3-(4-(6-hydroxy-2-azaspiro[3.3]heptan-2-yl)phenyl)-1H-indazole-5-carboxamide], for which the GI50 in test [1], in test [2] and in test [3] was no more than 100 nM throughout.

On to `O=C(N[C@H](c1ccccn1)C1CCCC1)c1ccc2[nH]nc(-c3ccc(N4CCC45COC5)cc3)c2c1` [Example A34, (S)-3-(4-(6-Oxa-1-azaspiro[3.3]heptan-1-yl)phenyl)-N-(cyclopentyl(pyridin-2-yl)methyl)-1H-indazole-5-carboxamide], for which the GI50 in test [1], in test [2] and in test [3] was 100 to 500 nM in each case.

In the case of `CC(C)[C@H](NC(=O)c1ccc2[nH]nc(-c3ccc(N4CC5(CN(C)C5)C4)cc3)c2c1)c1ccccc1Cl` [Example A28, (S)-N-(1-(2-Chlorophenyl)-2-methylpropyl)-3-(4-(6-methyl-2,6-diazaspiro[3.3]heptan-2-yl)phenyl)-1H-indazole-5-carboxamide], the 50% growth inhibitory concentration (GI50) in test [1], in test [2] and in test [3] was no more than 100 nM throughout.

For the compound `CC(C)C[C@H](NC(=O)c1ccc2[nH]nc(-c3ccc(N4CC5(COC5)C4)cc3)c2c1)c1ccccn1` [Example A27, (S)-3-(4-(2-oxa-6-azaspiro[3.3]heptan-6-yl)phenyl)-N-(3-methyl-1-(pyridin-2-yl)butyl)-1H-indazole-5-carboxamide], the 50% growth inhibitory concentration (GI50) in test [1], in test [2] and in test [3] was no more than 100 nM throughout.

`O=C(N[C@@H](c1ccsc1)C1CCCC1)c1ccc2[nH]nc(-c3ccc(N4CC5(COC5)C4)cc3)c2c1` [Example A9, 3-(4-(2-Oxa-6-azaspiro[3.3]heptan-6-yl)phenyl)-N-((R)-cyclopentyl(thiophen-3-yl)methyl)-1H-indazole-5-carboxamide]: the concentration for 50% growth inhibition (GI50) in test [1] was 100 to 500 nM; in test [2], greater than 500 nM; in test [3], 100 to 500 nM.

As to `CC(C)C[C@H](NC(=O)c1ccc2[nH]nc(-c3ccc(N4CCC45COC5)cc3)c2c1)c1ccccn1` [Example A35, (S)-3-(4-(6-Oxa-1-azaspiro[3.3]heptan-1-yl)phenyl)-N-(3-methyl-1-(pyridin-2-yl)butyl)-1H-indazole-5-carboxamide], the concentration for 50% growth inhibition (GI50) in test [1], in test [2] and in test [3] was 100 to 500 nM throughout.

On to `O=C(N[C@H](c1ncccn1)C1CCCC1)c1ccc2[nH]nc(-c3ccc(N4CC5(COC5)C4)cc3)c2c1` [Example A25, (S)-3-(4-(2-oxa-6-azaspiro[3.3]heptan-6-yl)phenyl)-N-(cyclopentyl(pyrimidin-2-yl)methyl)-1H-indazole-5-carboxamide], for which the 50% growth inhibitory concentration (GI50) in test [1], in test [2] and in test [3] was no more than 100 nM in each case.

`O=C(N[C@H](c1ccccn1)C1CC1)c1ccc2[nH]nc(-c3ccc(N4CC5(CCO5)C4)cc3)c2c1` [Example A21, (S)-3-(4-(1-Oxa-6-azaspiro[3.3]heptan-6-yl)phenyl)-N-(cyclopropyl(pyridin-2-yl)methyl)-1H-indazole-5-carboxamide]: the GI50 in test [1], in test [2] and in test [3] was no more than 100 nM throughout.

As for `O=C(N[C@@H](c1ncccn1)C1CCCC1)c1ccc2[nH]nc(-c3ccc(N4CC5(COC5)C4)cc3)c2c1` [Example A26, (R)-3-(4-(2-oxa-6-azaspiro[3.3]heptan-6-yl)phenyl)-N-(cyclopentyl(pyrimidin-2-yl)methyl)-1H-indazole-5-carboxamide], the GI50 in test [1], in test [2] and in test [3] was no more than 100 nM in each case.

Turning to `CC(C)[C@H](NC(=O)c1ccc2[nH]nc(-c3ccc(N4CC5(C4)CN(C4COC4)C5)cc3)c2c1)c1ccccc1Cl` [Example A30, (S)-N-(1-(2-Chlorophenyl)-2-methylpropyl)-3-(4-(6-(oxetan-3-yl)-2,6-diazaspiro[3.3]heptan-2-yl)phenyl)-1H-indazole-5-carboxamide], the concentration for 50% growth inhibition (GI50) in test [1], in test [2] and in test [3] was no more than 100 nM in each case.

For `O=C(NC(c1nccs1)C1CC1)c1ccc2[nH]nc(-c3ccc(N4CC5(COC5)C4)cc3)c2c1` (stereo not drawn) [Example A14, 3-(4-(2-Oxa-6-azaspiro[3.3]heptan-6-yl)phenyl)-N-(cyclopropyl(thiazol-2-yl)methyl)-1H-indazole-5-carboxamide], the 50% growth inhibitory concentration (GI50) in test [1], in test [2] and in test [3] was no more than 100 nM in each case.

The values above are taken from patent US8980934B2, “Kinase inhibitors and method of treating cancer with same” (University Health Network, priority 2012, dated 2015).
